The source of these data is patent US20260001928A1 (CORTERIA PHARMACEUTICALS, priority 2022, published 2026).

*1 amine or outer side, *2 acyl side, *3 side chain or, on linkers, in order; H or OH if unused. Where a SMILES comes first, the peptide text is derived from it. Side-chain parts run from the residue outwards. [ ]: non-standard residue; d: D form. The star is where a group is joined. C18 diacid = O=C(O)CCCCCCCCCCCCCCCCC(=O)*; C16 diacid = O=C(O)CCCCCCCCCCCCCCC(=O)*; γGlu = O=C(O)[C@H](CCC(=O)[*:2])N[*:1]; Api = NC1(C(=O)O)CCNCC1; Aib = CC(C)(N)C(=O)O

One data set addresses T1, human CRF2a receptor (Homo sapiens, UniProt Q13324).
T1 construct: expressed in transfected cells; host or cells: TeloHEAC cells
T1 sequence (Q13324 1-411): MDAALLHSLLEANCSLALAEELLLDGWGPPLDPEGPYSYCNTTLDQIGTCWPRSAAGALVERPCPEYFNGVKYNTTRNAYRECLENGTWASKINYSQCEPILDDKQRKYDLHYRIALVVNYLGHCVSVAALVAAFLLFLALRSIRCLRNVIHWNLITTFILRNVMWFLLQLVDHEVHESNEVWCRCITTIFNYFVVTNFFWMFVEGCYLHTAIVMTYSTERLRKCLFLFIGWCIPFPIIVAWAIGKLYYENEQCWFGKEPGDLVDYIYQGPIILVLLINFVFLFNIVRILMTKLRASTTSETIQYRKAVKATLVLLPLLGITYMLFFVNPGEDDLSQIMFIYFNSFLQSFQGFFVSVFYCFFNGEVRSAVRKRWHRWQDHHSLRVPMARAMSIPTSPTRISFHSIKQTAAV
Briefly: Activity at human CRF2a receptor, cAMP functional assay in TeloHEAC cells. To be noted: TeloHEAC cells stably expressing human CRF2a receptor, relative to urocortin 2 (100 nM = 100%). In kind it is cell-based. The essentials: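 TeloHEAC cells stably expressing human CRF2a (10000 cells/well, suspended in HBSS/20 mM HEPES with 2 mM IBMX) were exposed to compounds for 30 min at 37 °C. cAMP was read as the 665/620 nm fluorescence ratio after 1 h at room temperature. EC50 was derived relative to 100 nM urocortin 2, set as 100%.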

In another data set the target is T2, CFR1R receptor (Homo sapiens, UniProt P34998).
T2 construct: host or cells: CHO-K1 (clone 2)
T2 sequence (P34998 24-415): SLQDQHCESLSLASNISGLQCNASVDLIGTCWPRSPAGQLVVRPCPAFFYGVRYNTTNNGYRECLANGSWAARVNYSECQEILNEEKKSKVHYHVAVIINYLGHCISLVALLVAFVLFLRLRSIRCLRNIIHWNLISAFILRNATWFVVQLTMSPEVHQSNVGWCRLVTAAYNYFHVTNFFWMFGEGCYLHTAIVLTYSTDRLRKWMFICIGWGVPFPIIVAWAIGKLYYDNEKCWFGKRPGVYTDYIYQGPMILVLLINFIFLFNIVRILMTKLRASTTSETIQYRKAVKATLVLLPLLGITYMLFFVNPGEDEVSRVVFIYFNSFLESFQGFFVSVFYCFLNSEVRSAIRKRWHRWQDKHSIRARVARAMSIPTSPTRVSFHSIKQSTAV
As to the kind of experiment: Activity at anti-target CFR1R receptor, cAMP assay in CRF1R-overexpression CHO-K1 cells. Type of data set: cell-based. To be noted: 100% = Sauvagine at 100 nM; for EC50: cAMP. The procedure, abridged: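 Clone 2; cryopreserved stocks (10% DMSO); 4000 cells/well final; 100% activation = Sauvagine 100 nM; otherwise as TeloHAEC protocol.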

Data set [1] in a line: In vitro plasma stability, human plasma. Also on record: dose or concentration left out as unconfirmed. To be noted: Human PLM, 37° C. Type of data set: in vitro ADME.
Experimental: (§1) In vitro plasma metabolic stability was studied in male Sprague Dawley rats and human. Test compounds were incubated at 3 M for 2 hours at 37° C. At each time point (0, 0.25, 1 and 2 h), samples were prepared for analysis by means of a single step protein precipitation technique by adding 150 μL of ethanol, 0.1% formic acid to 50 μL aliquots of plasma. Samples were mixed by vortex for homogeneity and then subjected to centrifugation at 14000 rpm for 15 min. The supernatant (100 μL) was collected, diluted with 100 μL of water, 0.1% formic acid and analyzed by LC-HRMS (TripleTOF 6600+, AB Sciex). For each test compound, the area ratios at each time point were compared to the 0 h area ratio and converted to a percentage remaining.
Data set [2] can be described thus: In vitro plasma stability, rat plasma. Type of data set: in vitro ADME. Also on record: remaining at 2 h: dose or concentration left out as unconfirmed. To be noted: male, Sprague Dawley, plasma; Rat PLM, 37° C.
Experimental: as §1
Data set [3] can be described thus: In vitro plasma stability, minipig plasma. Type of data set: in vitro ADME. Further details: remaining at 2 h: dose or concentration left out as unconfirmed. To be noted: pig, plasma; Minipig PLM, 37° C.
A short description of data set [4]: Chemical stability in buffer (pH 7.4 / pH 4.5), % purity loss. Type of data set: physicochemical. To be noted: 40° C. vs 5° C., 14 or 28 days; for Buffer stability pH 7.4 % purity loss: 100 mM phosphate buffer pH 7.4. The procedure, abridged: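 LC-UV gave % loss after 14 or 28 days of storage at 5 °C or 40 °C. Samples were diluted supernatants from compound incubated 1 h at room temperature at 10 mg/mL target, in 100 mM acetate pH 4.5 or 100 mM phosphate pH 7.4.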

The subject of another data set is Sprague Dawley rats. Briefly: Effect on systolic blood pressure, telemetry in Sprague Dawley rats. In kind it is in vivo, rat. To be noted: 0.1 mg/kg SC; for Systolic blood pressure (Mean) % change from baseline, 8 h / Systolic blood pressure (Mean) % change from baseline, 12 h / Systolic blood pressure (Mean) % change from baseline, 24 h: n=2; for Duration of action: last time point with an effect on BP still observed. The essentials:
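Values are % change from a 1 h pre-dose baseline in systolic pressure, tracked by telemetry for up to 48 hours after a single 0.1 mg/kg subcutaneous dose. Rats (Sprague Dawley, n=2 per peptide) carried aortic catheters and recovered at least 10 days post-surgery; duration of action marks the last time point still showing an effect.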

A short description of data set [5]: In vitro subcutaneous tissue supernatant (SCts) stability and metabolite identification, rat. Also on record: remaining at 2 h: dose or concentration left out as unconfirmed. In kind it is in vitro ADME. To be noted: male, Sprague Dawley; rat subcutaneous tissue supernatant (SCts), 37° C, 2 h.
A short description of a further data set: Human PLM. To be noted: 37° C., up to 2 hours.
The next data set can be described thus: Minipig PLM. To be noted: 37° C., up to 2 hours.
A short description of another data set: Rat PLM. To be noted: male Sprague Dawley rats, 37° C., up to 2 hours.

For the molecule `CC[C@H](C)[C@H](NC(C)=O)C(=O)N[C@H](C(=O)N[C@@H](CC(C)C)C(=O)N[C@@H](CO)C(=O)N[C@@H](CC(C)C)C(=O)N[C@@H](CC(=O)O)C(=O)N[C@@H](C(=O)N1CCC[C@H]1C(=O)N[C@H](C(=O)N[C@@H](CCCCN)C(=O)N[C@@H](CC(C)C)C(=O)N[C@@H](CCCCNC(=O)CC[C@H](NC(=O)CCCCCCCCCCCCCCC(=O)O)C(=O)O)C(=O)N[C@@H](CCCCN)C(=O)N[C@H](C(=O)N[C@@H](CC(C)C)C(=O)N[C@@H](CC(C)C)C(=O)N[C@@H](CCC(=O)O)C(=O)N[C@@H](CCC(N)=O)C(=O)N[C@@H](CCC(=O)O)C(=O)N[C@@H](CCCCN)C(=O)N[C@@H](CCC(N)=O)C(=O)N[C@@H](CCCCN)C(=O)N[C@@H](CCCCN)C(=O)N[C@@H](CCC(N)=O)C(=O)N[C@@H](CCCNC(=N)N)C(=O)N[C@@H](CCC(=O)O)C(=O)N[C@@H](CCC(N)=O)C(=O)N[C@@H](C)C(=O)N[C@@H](CCC(=O)O)C(=O)N[C@H](C(=O)N[C@@H](CC(N)=O)C(=O)NC1(C(=O)N[C@@H](CCC(N)=O)C(=O)N[C@H](C(=O)N[C@@H](CC(C)C)C(=O)N[C@@H](C)C(=O)N[C@@H](CCC(N)=O)C(=O)N[C@H](C(N)=O)C(C)C)[C@@H](C)CC)CCNCC1)[C@@H](C)O)[C@@H](C)CC)[C@@H](C)CC)C(C)C)C(C)C` [compound 57] (Ac-IVLSLD[dV]PIKLK([γGlu-C16 diacid])KILLEQEKQKKQREQAETN[Api]QILAQV-NH2), the EC50 on human CRF2a receptor was found to be 390 pM. Moreover, on CFR1R receptor, the “Emax (% I)” value is on record as 24 % I and the EC50 is greater than 250000 pM. The fraction remaining at 2 h in data set [1] was 104%. Besides, in [2], the share remaining at 2 h amounted to 96%. Also, in [3], the amount remaining at 2 h worked out at 81%. In addition, in data set [4] (100 mM acetate buffer pH 4.5), the “Buffer stability pH 4.5 % purity loss” value was 0/0 ^ %. The “Buffer stability pH 7.4 % purity loss” value in data set [4] was 0/0 ^ %. For the same molecule, in the data set with Sprague Dawley rats, the “Systolic blood pressure (Mean) % change from baseline, 8 h” value is listed as −34%; the “Systolic blood pressure (Mean) % change from baseline, 12 h” value is −25%; the “Systolic blood pressure (Mean) % change from baseline, 24 h” value was −2%; the Duration of action is reported as greater than 24 h.

With `CC[C@H](C)[C@H](NC(C)=O)C(=O)N[C@H](C(=O)N[C@@H](CC(C)C)C(=O)N[C@@H](CO)C(=O)N[C@@H](CC(C)C)C(=O)N[C@@H](CC(=O)O)C(=O)N[C@@H](C(=O)N1CCC[C@H]1C(=O)N[C@H](C(=O)N[C@@H](CCCCN)C(=O)N[C@@H](CC(C)C)C(=O)N[C@@H](CCCCNC(=O)CC[C@H](NC(=O)CCCCCCCCCCCCCCCCC(=O)O)C(=O)O)C(=O)N[C@@H](CCCCN)C(=O)N[C@H](C(=O)N[C@@H](CC(C)C)C(=O)N[C@@H](CC(C)C)C(=O)N[C@@H](CCC(=O)O)C(=O)N[C@@H](CCC(N)=O)C(=O)N[C@@H](CCC(=O)O)C(=O)N[C@@H](CCCCN)C(=O)N[C@@H](CCC(N)=O)C(=O)N[C@@H](CCCCN)C(=O)N[C@@H](CCCCN)C(=O)N[C@@H](CCC(N)=O)C(=O)N[C@@H](CCCNC(=N)N)C(=O)N[C@@H](CCC(=O)O)C(=O)N[C@@H](CCC(N)=O)C(=O)N[C@@H](C)C(=O)N[C@@H](CCC(=O)O)C(=O)N[C@H](C(=O)N[C@@H](CC(N)=O)C(=O)NC(C)(C)C(=O)N[C@@H](CCC(N)=O)C(=O)N[C@H](C(=O)N[C@@H](CC(C)C)C(=O)N[C@@H](C)C(=O)N[C@@H](CCC(N)=O)C(=O)N[C@H](C(N)=O)C(C)C)[C@@H](C)CC)[C@@H](C)O)[C@@H](C)CC)[C@@H](C)CC)C(C)C)C(C)C` [compound 125] (Ac-IVLSLD[dV]PIKLK([γGlu-C18 diacid])KILLEQEKQKKQREQAETN[Aib]QILAQV-NH2), the EC50 was 150 pM at human CRF2a receptor and greater than 250000 pM on CFR1R receptor. On CFR1R receptor, the “Emax (% I)” value amounted to 18 % I. In addition, the amount remaining at 2 h in data set [1] amounted to 93%; in data set [2], 108%; in [3], 110%; in [5], 79%. The “Buffer stability pH 7.4 % purity loss” value in data set [4] is given as 0/nd ^ %. Also, the “Systolic blood pressure (Mean) % change from baseline, 8 h” value in the data set with Sprague Dawley rats is −25%. The “Systolic blood pressure (Mean) % change from baseline, 12 h” value in the data set on Sprague Dawley rats is listed as −16%. Besides, the “Systolic blood pressure (Mean) % change from baseline, 24 h” value in the data set with Sprague Dawley rats is reported as 1%. In the data set with Sprague Dawley rats, this molecule had a Duration of action of 22 h.

For the molecule “Ac-IVLSLDvPIKLK*KILLEQEKQKKQREQAETNAbuQILAQV-NH2”, the values for the not cleaved in “Human PLM” and in “Minipig PLM” were 102% remaining at 2 hours and 97% remaining at 2 hours, respectively.

In the case of “Ac-IVLSLDvPIKLK*KILLEQEKQKKQREQAETNAibQILAQV-NH2”, the not cleaved is 108% remaining at 2 hours in “Rat PLM”, 93% remaining at 2 hours in the data set “Human PLM” and 110% remaining at 2 hours in “Minipig PLM”.

“Ac-IVLSLDvPIKαMELK*KILLEQEKQKKQREQAETNAibQILAQV-NH2”: the not cleaved is on record as 95% remaining at 2 hours in “Rat PLM”, 97% remaining at 2 hours in “Human PLM” and 106% remaining at 2 hours in the data set “Minipig PLM”.

Take “NMeIVLSLDvPIKLK*KILLEQEKQKKQREQAETNAibQILAQV-NH2”: the not cleaved is recorded as 128% remaining at 2 hours in “Rat PLM”, 91% remaining at 2 hours in “Human PLM” and 126% remaining at 2 hours in “Minipig PLM”.

In the case of “Pentanoyl-VLSLDvPIKLK*KILLEQEKQKKQREQAETNAibQILAQV-NH2”, the not cleaved in the data set “Rat PLM” stood at 98% remaining at 2 hours; in the data set “Human PLM”, 101% remaining at 2 hours; in the data set “Minipig PLM”, 104% remaining at 2 hours.
